Test results: paper PMC8078842 (PLoS Neglected Tropical Diseases, 2021)
“And” between values parts separate entries of the source, which are not always exact repeats. Identical values can stand only once.

Test: In situ brain/choroid plexus perfusion (10 or 30 minutes) with capillary depletion
Conditions: for RTISSUE/PLASMA% (mean±SEM) Caudate putamen / RTISSUE/PLASMA% (mean±SEM) Cerebellum / RTISSUE/PLASMA% (mean±SEM) Choroid plexus / RTISSUE/PLASMA% (mean±SEM) Corpus callosum / RTISSUE/PLASMA% (mean±SEM) Frontal cortex / RTISSUE/PLASMA% (mean±SEM) Hippocampus / RTISSUE/PLASMA% (mean±SEM) Homogenate / RTISSUE/PLASMA% (mean±SEM) Hypothalamus / RTISSUE/PLASMA% (mean±SEM) Occipital cortex / RTISSUE/PLASMA% (mean±SEM) Pellet / RTISSUE/PLASMA% (mean±SEM) Pineal gland / RTISSUE/PLASMA% (mean±SEM) Pituitary gland / RTISSUE/PLASMA% (mean±SEM) Pons / RTISSUE/PLASMA% (mean±SEM) Supernatant / RTISSUE/PLASMA% (mean±SEM) Thalamus / RTISSUE/PLASMA% (mean ± SEM) of [^3H]pentamidine: not corrected for vascular space; for RTISSUE/PLASMA% (mean ± SEM) of [^3H]pentamidine: 30 min perfusion
[1] = 15.7 nM, 10 minutes perfusion, corrected for vascular space
[2] = 15.7 nM, 10 minutes perfusion, corrected for vascular space, listed as [^3H]pentamidine
[3] = 10 minutes perfusion, listed as Control A [^3H]pentamidine
[4] = 10 minutes perfusion, listed as Control B [^3H]pentamidine

Substance: [^3H(G)]pentamidine
- RCORR TISSUE% caudate putamen [1]: 4.02 (± 1.03) %
- RCORR TISSUE% cerebellum [1]: 3.82 (± 0.64) %
- RCORR TISSUE% choroid plexus [1]: 490.9 (± 103.1) %
- RCORR TISSUE% corpus callosum [1]: 6.73 (± 2.65) %
- RCORR TISSUE% frontal cortex [1]: 4.29 (± 0.93) %
- RCORR TISSUE% hippocampus [1]: 4.37 (± 0.97) %
- RCORR TISSUE% homogenate [1]: 4.61 (± 0.94) %
- RCORR TISSUE% hypothalamus [1]: 5.56 (± 1.58) %
- RCORR TISSUE% occipital cortex [1]: 4.03 (± 0.98) %
- RCORR TISSUE% pellet [1]: 12.54 (± 1.74) %
- RCORR TISSUE% pineal gland [1]: 284.7 (± 81.4) %
- RCORR TISSUE% pons [1]: 7.16 (± 1.75) %
- RCORR TISSUE% supernatant [1]: less than 2%
- RCORR TISSUE% thalamus [1]: 4.76 (± 0.91) %
- RCORR TISSUE% pituitary gland [2]: 182.75(± 29.6) % and 182.75(± 37.5) %
- RCORR TISSUE% supernatant [2]: 1.99 (± 0.45) %
- RTISSUE/PLASMA% (mean±SEM) Caudate putamen [3]: 4.08 (± 0.84) %
- RTISSUE/PLASMA% (mean±SEM) Cerebellum [3]: 5.28 (± 0.56) %
- RTISSUE/PLASMA% (mean±SEM) Choroid plexus [3]: 385.74 (± 24.35) %
- RTISSUE/PLASMA% (mean±SEM) Corpus callosum [3]: 5.32 (± 1.47) %
- RTISSUE/PLASMA% (mean±SEM) Frontal cortex [3]: 4.88 (± 1.18) %
- RTISSUE/PLASMA% (mean±SEM) Hippocampus [3]: 3.48 (± 0.94) %
- RTISSUE/PLASMA% (mean±SEM) Homogenate [3]: 4.03 (± 0.78) %
- RTISSUE/PLASMA% (mean±SEM) Hypothalamus [3]: 5.96 (± 1.23) %
- RTISSUE/PLASMA% (mean±SEM) Occipital cortex [3]: 4.56 (±0.87) %
- RTISSUE/PLASMA% (mean±SEM) Pellet [3]: 4.11 (± 1.24) %
- RTISSUE/PLASMA% (mean±SEM) Pineal gland [3]: 367.59 (± 39.97) %
- RTISSUE/PLASMA% (mean±SEM) Pituitary gland [3]: 251.21 (± 66.80) %
- RTISSUE/PLASMA% (mean±SEM) Pons [3]: 7.81 (± 0.90) %
- RTISSUE/PLASMA% (mean±SEM) Supernatant [3]: 2.54 (± 0.39) %
- RTISSUE/PLASMA% (mean±SEM) Thalamus [3]: 4.34 (± 0.83) %
- RTISSUE/PLASMA% (mean±SEM) Caudate putamen [4]: 5.40 (± 1.00) %
- RTISSUE/PLASMA% (mean±SEM) Cerebellum [4]: 6.54 (± 0.70) %
- RTISSUE/PLASMA% (mean±SEM) Choroid plexus [4]: 535.95 (± 107.86) %
- RTISSUE/PLASMA% (mean±SEM) Corpus callosum [4]: 9.17 (± 2.67) %
- RTISSUE/PLASMA% (mean±SEM) Frontal cortex [4]: 6.23 (± 0.92) %
- RTISSUE/PLASMA% (mean±SEM) Hippocampus [4]: 5.60 (± 1.43) %
- RTISSUE/PLASMA% (mean±SEM) Homogenate [4]: 6.20 (± 0.97) %
- RTISSUE/PLASMA% (mean±SEM) Hypothalamus [4]: 8.14 (± 1.75) %
- RTISSUE/PLASMA% (mean±SEM) Occipital cortex [4]: 5.67 (± 0.99) %
- RTISSUE/PLASMA% (mean±SEM) Pellet [4]: 13.19 (± 1.79) %
- RTISSUE/PLASMA% (mean±SEM) Pineal gland [4]: 361.76 (± 79.03) %
- RTISSUE/PLASMA% (mean±SEM) Pituitary gland [4]: 203.27(± 32.85) %
- RTISSUE/PLASMA% (mean±SEM) Pons [4]: 10.72 (± 1.82) %
- RTISSUE/PLASMA% (mean±SEM) Supernatant [4]: 3.00 (± 0.43) %
- RTISSUE/PLASMA% (mean±SEM) Thalamus [4]: 5.95 (± 0.92) %
- Accumulation corrected for vascular space, hippocampus (30 minutes of perfusion): 6.9%
- Accumulation corrected for vascular space, hypothalamus (30 minutes of perfusion): 15%
- Accumulation corrected for vascular space, pons (30 minutes of perfusion): 10.9%
- RTISSUE/PLASMA% (mean ± SEM) of [^3H]pentamidine (Caudate putamen, 0.01% F68 + 15.7 nM pent): 6.90 (± 1.58) %
- RTISSUE/PLASMA% (mean ± SEM) of [^3H]pentamidine (Caudate putamen, 0.1% F68 + 15.7 nM pent): 10.41 (± 1.18) %
- RTISSUE/PLASMA% (mean ± SEM) of [^3H]pentamidine (Caudate putamen, 0.5% F68 + 15.7 nM pent): 13.07 (± 3.45) %
- RTISSUE/PLASMA% (mean ± SEM) of [^3H]pentamidine (Caudate putamen, Control (15.7 nM pent)): 8.65 (± 0.28) %
- RTISSUE/PLASMA% (mean ± SEM) of [^3H]pentamidine (Cerebellum, 0.01% F68 + 15.7 nM pent): 9.38 (± 2.47) %
